These results are taken from patent publication US4603130A, “1-substituted-2-(piperazinyl or homopiperazinyl)-benzimidazole compounds and pharmaceutical composition” (Kanebo, Ltd., priority 1983, dated 1986).

Series [1] deals with histamine-induced lethality. Description: Protecting activity against histamine-induced lethality (similar to Labelle-Tislow method), oral. It counts as in vivo, Hartley strain male and female guinea pigs. To be noted: Cavia porcellus, 2 h, guinea pig, p.o. 1 h before histamine 1.1 mg/kg i.v., survival after two hours, Probit method, Example 9 as free base, others as fumarate. The method, then:
1. Protecting activity against histamine-induced lethality:
(3) Homochlorcyclizine hydrochloride (reference compound)
The test was carried out by a method similar to Labelle-Tislow method [cf. J. Pharmacol. Exp. Ther., 113, 72, 1955]. […] After one hour, histamine (1.1 mg/kg, in a physiological saline solution) was injected to the animals in cephalic vein. After two hours, the number of live guinea pigs was counted, and therefrom ED50 of the compounds was calculated according to Probit method.

For series [2] the following is noted: among compounds of U.S. Pat. No. 3,423,413; cited from earlier work.
A further series is described as follows: in vivo. To be noted: mouse, in vivo, po; mice, p.o., deaths within one week; Weil's method; Example 9 as free base, others as fumarate; read-out: Acute Toxicity LD50. An excerpt: (§1) 2. Acute toxicity (LD50):
(§2) The same compounds as used in the above protecting activity against histamine were used.

For the next series, the system named is mice. The series can be described thus: in vivo. Particulars: p.o., deaths within one week, Weil's method, Example 9 as free base, others as fumarate, 10080 min.
Excerpt: as §1, §2

The subject of series [3] is hexobarbital-induced sleep. Description: Potentiating effect on hexobarbital-induced sleep in mice. To be noted: 25 mg/kg (p.o.). It counts as in vivo. An excerpt:
Besides, the conventional antihistaminics have side-effect such as hypnotic activity.

Where a name gives a salt, the structure may show the parent alone.

As usually defined, the ED50 is the dose that gives a 50% effect, or the effect in half of the subjects. Usually LD50 stands for the dose at which mortality reaches 50%. In turn, `OCCN1CCN(Cc2nc3ccccc3n2Cc2ccc(F)cc2)CC1` [Compound A, 1-(4-fluorobenzyl)-2-[4-(2-hydroxyethyl)-1-piperazinyl]methylbenzimidazole, reference compound] returned an ED50 in series [1] of 0.026 mg/kg. Moreover, in series [2], the anti-allergic activity result is “most potent anti-allergic activity”. The LD50 at 168 h in the series “in vivo” came out at 440 mg/kg.
As to `CCOCCn1c(CN2CCNCC2)nc2ccccc21` [Example 1, 1-(2-ethoxyethyl)-2-(1-piperazinyl)methylbenzimidazole], it took a dose of 0.0033 mg/kg to reach the 50% effect level in series [1] (ED50). Further, in the series “in vivo”, the LD50 at 168 h was > 2000 mg/kg.
The compound `CCOCCn1c(CN2CCCNCC2)nc2ccccc21` [Example 2, 1-(2-ethoxyethyl)-2-(1-homopiperazinyl)methylbenzimidazole] registered an ED50 in series [1] of 0.014 mg/kg. The LD50 at 168 h in the series “in vivo” stood at 1540 mg/kg.
`CCOCCn1c(CN2CCN(C)CC2)nc2ccccc21` [Example 3, 1-(2-ethoxyethyl)-2-(4-methyl-1-piperazinyl)methylbenzimidazole] yielded an ED50 in series [1] of 0.0026 mg/kg. Moreover, the LD50 at 168 h in “in vivo” amounted to 789 mg/kg.
For `CCOCCn1c(CN2CCCN(C)CC2)nc2ccccc21` [Example 4, 1-(2-ethoxyethyl)-2-(4-methyl-1-homopiperazinyl)methylbenzimidazole] the same measures were 0.0092 mg/kg and 990 mg/kg.
The matching figures for `CCOCCn1c(CN2CCN(CC)CC2)nc2ccccc21` [Example 5, 1-(2-ethoxyethyl)-2-(4-ethyl-1-piperazinyl)methylbenzimidazole]: 0.0067 mg/kg and 904 mg/kg.
For `CCCN1CCN(Cc2nc3ccccc3n2CCOCC)CC1` [Example 6, 1-(2-ethoxyethyl)-2-(4-n-propyl-1-piperazinyl)methylbenzimidazole] the same measures were 0.0095 mg/kg and 303 mg/kg.
Regarding `CCOCCn1c(CN2CCN(CCO)CC2)nc2ccccc21` [Example 7, 1-(2-ethoxyethyl)-2-[4-(2-hydroxyethyl)-1-piperazinyl]methylbenzimidazole], it took a dose of 0.004 mg/kg to reach the 50% effect level in series [1] (ED50). Besides, the LD50 at 168 h in the series “in vivo” was > 2000 mg/kg.
For `CCCOCCn1c(CN2CCN(C)CC2)nc2ccccc21` [Example 8, 1-(2-n-propoxyethyl)-2-(4-methyl-1-piperazinyl)methylbenzimidazole] the same measures were 0.0059 mg/kg and 1010 mg/kg.
`C=COCCn1c(CN2CCN(C)CC2)nc2ccccc21` [Example 9, 1-(2-vinyloxyethyl)-2-(4-methyl-1-piperazinyl)methylbenzimidazole] gave an ED50 in series [1] of 0.0071 mg/kg. For the same compound, in the series “in vivo”, the LD50 at 168 h is 698 mg/kg.
For `C=CCOCCn1c(CN2CCN(C)CC2)nc2ccccc21` [Example 10, 1-(2-allyloxyethyl)-2-(4-methyl-1-piperazinyl)methylbenzimidazole] the same measures were 0.0059 mg/kg and 657 mg/kg.
In series [1], `C#CCOCCn1c(CN2CCN(C)CC2)nc2ccccc21` [Example 11, 1-(2-propargyloxyethyl)-2-(4-methyl-1-piperazinyl)methylbenzimidazole] had an ED50 of 0.0023 mg/kg. Also, the LD50 at 168 h in “in vivo” was determined as 891 mg/kg.
For `C#CCOCCn1c(CN2CCCN(C)CC2)nc2ccccc21` [Example 12, 1-(2-propargyloxyethyl)-2-(4-methyl-1-homopiperazinyl)methylbenzimidazole] the same measures were 0.017 mg/kg and 524 mg/kg.
Regarding `CN1CCCN(C(c2ccccc2)c2ccc(Cl)cc2)CC1` (stereo not drawn) [Homochlorcyclizine hydrochloride, reference compound], in series [1], the ED50 was found to be 0.26 mg/kg. Further, the “Acute Toxicity LD50” value in the series on mice worked out at 382 mg/kg. For the same compound, the “potentiating effect on hexobarbital-induced sleep” value in series [3] was “showed remarkable potentiating effect”.
